The values that follow come from PubChem BioAssay AID1671465 (Sanford-Burnham Center for Chemical Genomics, 2021).

Activity calls are given as the source filed them.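 The calls were made as follows: active = compounds whose mean EC50 for raising GC-A cGMP output is under 66 µM; inactive = the rest.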

For the experiment, the target named is Atrial natriuretic peptide receptor 1 (Homo sapiens) (UniProt P16066). Briefly: human GC-A cGMP response enhancers – HEK293 GC-A cells, cGMP TR-FRET, powder samples, SAR follow-up (AID 1671465). Particulars: EC30 ANP.
Sequence of Atrial natriuretic peptide receptor 1 (Homo sapiens) (P16066 whole entry, looked up): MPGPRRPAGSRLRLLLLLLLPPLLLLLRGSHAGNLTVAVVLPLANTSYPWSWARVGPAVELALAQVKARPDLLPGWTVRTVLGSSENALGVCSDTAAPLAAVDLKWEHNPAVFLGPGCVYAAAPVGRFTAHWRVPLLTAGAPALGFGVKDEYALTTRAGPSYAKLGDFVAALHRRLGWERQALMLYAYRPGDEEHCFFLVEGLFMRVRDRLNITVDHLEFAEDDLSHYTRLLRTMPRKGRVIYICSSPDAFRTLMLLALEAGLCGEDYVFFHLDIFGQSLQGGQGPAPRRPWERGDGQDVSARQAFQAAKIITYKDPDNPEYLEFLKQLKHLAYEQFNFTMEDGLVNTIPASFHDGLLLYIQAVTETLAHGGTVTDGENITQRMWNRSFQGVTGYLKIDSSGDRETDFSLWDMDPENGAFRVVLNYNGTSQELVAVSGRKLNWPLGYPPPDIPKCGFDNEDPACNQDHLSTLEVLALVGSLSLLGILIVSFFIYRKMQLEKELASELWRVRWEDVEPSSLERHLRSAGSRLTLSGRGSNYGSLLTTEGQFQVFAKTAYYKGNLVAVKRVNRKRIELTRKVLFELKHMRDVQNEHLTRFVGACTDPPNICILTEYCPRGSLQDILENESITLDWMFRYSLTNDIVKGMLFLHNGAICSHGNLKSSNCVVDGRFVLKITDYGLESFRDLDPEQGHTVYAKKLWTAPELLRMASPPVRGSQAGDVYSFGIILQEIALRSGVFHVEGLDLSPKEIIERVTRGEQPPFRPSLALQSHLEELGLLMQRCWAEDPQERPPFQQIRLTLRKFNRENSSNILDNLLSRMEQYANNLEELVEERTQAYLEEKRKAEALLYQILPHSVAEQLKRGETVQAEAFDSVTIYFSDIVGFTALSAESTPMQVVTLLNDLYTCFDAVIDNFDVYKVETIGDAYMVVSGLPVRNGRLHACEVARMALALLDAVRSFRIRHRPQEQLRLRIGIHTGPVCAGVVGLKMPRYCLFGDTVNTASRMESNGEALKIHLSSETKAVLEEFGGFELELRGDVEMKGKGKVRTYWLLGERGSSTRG
Turning to `O=C(Nc1nc2c(F)cc(F)cc2s1)C1CCCN(C(=O)c2ccccc2)C1` (stereo unspecified), the EC50 was 3.36 µM. As for `CN(C)CCN1CCCC(C(=O)Nc2nc3c(F)cc(F)cc3s2)C1` (stereo unspecified), the EC50 is 0.393 µM.

As to `O=C(Nc1nc2c(F)cc(F)cc2s1)C1CCCN(C(=O)C2CC2)C1` (stereo unspecified), the EC50 was 1.97 µM. On to `CN1CCCC(C(=O)Nc2nc3c(F)cc(F)cc3s2)C1` (stereo unspecified), for which the EC50 was 1.23 µM. As for `O=C(Nc1nc2c(F)cc(F)cc2s1)C1CCCNC1` (stereo unspecified), the figure is 1.05 µM. As for `O=C(Nc1nc2c(F)cc(F)cc2s1)C1CCCN(C(=O)Cc2ccccc2)C1` (stereo unspecified), the figure is 2.02 µM; as for `CC(C)(C)C(=O)N1CCCC(C(=O)Nc2nc3c(F)cc(F)cc3s2)C1` (stereo unspecified), 5.07 µM; as for `CC(C)(C)C(=O)N1CCC(C(=O)Nc2nc3c(Cl)ccc(Cl)c3s2)CC1`, > 66.7 µM (inactive). As for `O=C(Nc1nc2c(F)cc(F)cc2s1)C1CCCCC1`, the EC50 was 2.73 µM. As for `CC(=O)N1CCCC(C(=O)Nc2nc3c(F)cc(F)cc3s2)C1` (stereo unspecified), the figure is 1.65 µM. For `CC(=O)N1CCC(C(=O)Nc2nc3c(F)cc(F)cc3s2)CC1` the value was 1.15 µM; for `CC(C)(C)OC(=O)N1CCCC(C(=O)Nc2nc3c(F)cc(F)cc3s2)C1` (stereo unspecified), 8.26 µM. Regarding `CS(=O)(=O)N1CCCC(C(=O)Nc2nc3c(F)cc(F)cc3s2)C1` (stereo unspecified), the EC50 is 1.75 µM.

For the compound `O=C(Nc1nc2c(F)cc(F)cc2s1)C1CCCN(Cc2ccccc2)C1` (stereo unspecified), the EC50 was 2.41 µM.

`CC(=O)Nc1nc2c(F)cc(F)cc2s1`: the EC50 was 23.9 µM.

On to `O=C(Nc1nc2c(F)cc(F)cc2s1)C1CCCN(C(=O)C2CCC2)C1` (stereo unspecified), for which the EC50 was 1.81 µM.

As to `CC(C)N1CCC(C(=O)Nc2nc3c(F)cc(F)cc3s2)CC1`, the concentration giving a half-maximal response (EC50) was 0.84 µM. `CC(C)(C)CC(=O)N1CCCC(C(=O)Nc2nc3c(F)cc(F)cc3s2)C1` (stereo unspecified): the EC50 was 3.57 µM. As for `CC(C)(C)C(=O)N1CCC(C(=O)Nc2nc3c(F)cc(F)cc3s2)C1` (stereo unspecified), the figure is 2.09 µM. In the case of `O=C(Nc1nc2c(F)cc(F)cc2s1)C1CCN(C(=O)C2CCC2)CC1`, the EC50 is 1.72 µM.

Take `CC(C)(C)C(=O)N1CCC(C(=O)Nc2nc3c(Cl)cccc3s2)CC1`: the EC50 was 2 µM.
